ChEMBL document CHEMBL4368931, “Discovery of novel thienoquinoline-2-carboxamide chalcone derivatives as antiproliferative EGFR tyrosine kinase inhibitors” (Bioorg Med Chem, 2019)

Key:
PANC-1 = experiment: Antiproliferative activity against human PANC1 cells after 48 hrs by propidium iodide fluorescence assay; format: functional, cell-based; settings: PANC-1, 48 h
MIA PaCa-2 = experiment: Antiproliferative activity against human MIAPaCa2 cells after 48 hrs by propidium iodide fluorescence assay; format: functional, cell-based; settings: MIA PaCa-2, 48 h
HT-29 = experiment: Antiproliferative activity against human HT-29 cells after 48 hrs by propidium iodide fluorescence assay; format: functional, cell-based; settings: HT-29, 48 h
NCI-H460 [1] = experiment: Antiproliferative activity against human NCI-H460 cells after 48 hrs by propidium iodide fluorescence assay; format: functional, cell-based; settings: NCI-H460, 48 h
A-375 = experiment: Antiproliferative activity against human A375 cells after 48 hrs by propidium iodide fluorescence assay; format: functional, cell-based; settings: A-375, 48 h
[2] = Cytotoxicity in human MCF10A cells assessed as cell viability incubated for 4 days by MTT assay; format: cell-based, MCF-10A; design: concentration or dose not given beside the values; settings: read-out: Activity
[3] = molecular target: Epidermal growth factor receptor (Homo sapiens, UniProt P00533); experiment: Inhibition of His6-tagged EGFR cytoplasmic domain (645 to 1186 residues) (unknown origin) expressed in baculovirus infected Sf9 insect cells after 10 mins by DELFIA/time-resolved fluorometry
[4] = molecular target: Vascular endothelial growth factor receptor 1 (Homo sapiens, UniProt P17948); experiment: Inhibition of VEGFR1 (unknown origin)
[5] = molecular target: Serine/threonine-protein kinase Chk2 (Homo sapiens, UniProt O96017); experiment: Inhibition of CHK2 (unknown origin)
NCI-H460 [6] = experiment: Cell cycle arrest in human NCI-H460 cells assessed as apoptotic cells at 0.2 uM after 24 hrs by propidium iodide staining-based flow cytometric analysis (reference value: 1.55%); format: functional
NCI-H460 [7] = experiment: Cell cycle arrest in human NCI-H460 cells assessed as accumulation of cells at G1 phase at 0.2 uM after 24 hrs by propidium iodide staining-based flow cytometric analysis (reference value: 47.39%); format: functional
NCI-H460 [8] = experiment: Cell cycle arrest in human NCI-H460 cells assessed as accumulation of cells at G2 phase at 0.2 uM after 24 hrs by propidium iodide staining-based flow cytometric analysis (reference value: 10%); format: functional
NCI-H460 [9] = experiment: Cell cycle arrest in human NCI-H460 cells assessed as accumulation of cells at S phase at 0.2 uM after 24 hrs by propidium iodide staining-based flow cytometric analysis (reference value: 42.61%); format: functional
NCI-H460 [10] = experiment: Induction of apoptosis in human NCI-H460 cells assessed as early apoptotic cells at 0.2 uM after 24 hrs by Annexin V-FITC/propidium iodide staining-based flow cytometric analysis relative to control; format: functional
NCI-H460 [11] = experiment: Induction of apoptosis in human NCI-H460 cells assessed as late apoptotic cells at 0.2 uM after 24 hrs by Annexin V-FITC/propidium iodide staining-based flow cytometric analysis relative to control; format: functional
NCI-H460 [12] = experiment: Induction of apoptosis in human NCI-H460 cells assessed as necrotic cells at 0.2 uM after 24 hrs by Annexin V-FITC/propidium iodide staining-based flow cytometric analysis relative to control; format: functional

Sequence of Epidermal growth factor receptor (P00533 whole entry, the tested form may be a part): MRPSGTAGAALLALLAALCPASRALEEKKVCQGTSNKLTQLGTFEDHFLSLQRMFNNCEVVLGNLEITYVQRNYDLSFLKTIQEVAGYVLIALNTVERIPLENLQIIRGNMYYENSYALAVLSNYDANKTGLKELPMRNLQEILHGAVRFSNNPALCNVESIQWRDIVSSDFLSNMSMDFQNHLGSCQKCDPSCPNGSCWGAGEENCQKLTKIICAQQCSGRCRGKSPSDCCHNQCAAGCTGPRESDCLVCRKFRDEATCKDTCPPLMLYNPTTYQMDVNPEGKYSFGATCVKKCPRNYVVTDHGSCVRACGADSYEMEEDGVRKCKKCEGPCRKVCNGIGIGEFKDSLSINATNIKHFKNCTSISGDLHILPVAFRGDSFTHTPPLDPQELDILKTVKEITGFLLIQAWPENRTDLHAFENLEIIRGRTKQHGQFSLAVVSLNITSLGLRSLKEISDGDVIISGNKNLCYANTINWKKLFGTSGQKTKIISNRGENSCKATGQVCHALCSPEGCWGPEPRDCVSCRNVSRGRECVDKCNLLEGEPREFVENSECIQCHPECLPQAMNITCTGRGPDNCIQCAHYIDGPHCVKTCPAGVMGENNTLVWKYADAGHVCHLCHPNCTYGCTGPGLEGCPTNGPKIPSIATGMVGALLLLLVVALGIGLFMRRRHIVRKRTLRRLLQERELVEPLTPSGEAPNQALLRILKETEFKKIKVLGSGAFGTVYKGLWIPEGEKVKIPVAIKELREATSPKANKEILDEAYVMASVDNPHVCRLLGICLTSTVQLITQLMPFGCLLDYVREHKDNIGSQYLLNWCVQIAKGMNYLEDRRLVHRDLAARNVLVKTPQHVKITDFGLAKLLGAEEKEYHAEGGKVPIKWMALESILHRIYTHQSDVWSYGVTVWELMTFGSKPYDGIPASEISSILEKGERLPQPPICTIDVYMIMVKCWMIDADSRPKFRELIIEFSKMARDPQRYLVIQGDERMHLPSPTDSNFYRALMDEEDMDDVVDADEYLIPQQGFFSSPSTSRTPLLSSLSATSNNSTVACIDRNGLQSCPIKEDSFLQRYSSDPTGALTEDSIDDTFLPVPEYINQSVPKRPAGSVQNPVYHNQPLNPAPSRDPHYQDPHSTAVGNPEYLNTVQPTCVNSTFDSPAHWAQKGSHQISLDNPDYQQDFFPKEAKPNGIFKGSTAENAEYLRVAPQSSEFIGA
Sequence of Vascular endothelial growth factor receptor 1 (P17948 whole entry): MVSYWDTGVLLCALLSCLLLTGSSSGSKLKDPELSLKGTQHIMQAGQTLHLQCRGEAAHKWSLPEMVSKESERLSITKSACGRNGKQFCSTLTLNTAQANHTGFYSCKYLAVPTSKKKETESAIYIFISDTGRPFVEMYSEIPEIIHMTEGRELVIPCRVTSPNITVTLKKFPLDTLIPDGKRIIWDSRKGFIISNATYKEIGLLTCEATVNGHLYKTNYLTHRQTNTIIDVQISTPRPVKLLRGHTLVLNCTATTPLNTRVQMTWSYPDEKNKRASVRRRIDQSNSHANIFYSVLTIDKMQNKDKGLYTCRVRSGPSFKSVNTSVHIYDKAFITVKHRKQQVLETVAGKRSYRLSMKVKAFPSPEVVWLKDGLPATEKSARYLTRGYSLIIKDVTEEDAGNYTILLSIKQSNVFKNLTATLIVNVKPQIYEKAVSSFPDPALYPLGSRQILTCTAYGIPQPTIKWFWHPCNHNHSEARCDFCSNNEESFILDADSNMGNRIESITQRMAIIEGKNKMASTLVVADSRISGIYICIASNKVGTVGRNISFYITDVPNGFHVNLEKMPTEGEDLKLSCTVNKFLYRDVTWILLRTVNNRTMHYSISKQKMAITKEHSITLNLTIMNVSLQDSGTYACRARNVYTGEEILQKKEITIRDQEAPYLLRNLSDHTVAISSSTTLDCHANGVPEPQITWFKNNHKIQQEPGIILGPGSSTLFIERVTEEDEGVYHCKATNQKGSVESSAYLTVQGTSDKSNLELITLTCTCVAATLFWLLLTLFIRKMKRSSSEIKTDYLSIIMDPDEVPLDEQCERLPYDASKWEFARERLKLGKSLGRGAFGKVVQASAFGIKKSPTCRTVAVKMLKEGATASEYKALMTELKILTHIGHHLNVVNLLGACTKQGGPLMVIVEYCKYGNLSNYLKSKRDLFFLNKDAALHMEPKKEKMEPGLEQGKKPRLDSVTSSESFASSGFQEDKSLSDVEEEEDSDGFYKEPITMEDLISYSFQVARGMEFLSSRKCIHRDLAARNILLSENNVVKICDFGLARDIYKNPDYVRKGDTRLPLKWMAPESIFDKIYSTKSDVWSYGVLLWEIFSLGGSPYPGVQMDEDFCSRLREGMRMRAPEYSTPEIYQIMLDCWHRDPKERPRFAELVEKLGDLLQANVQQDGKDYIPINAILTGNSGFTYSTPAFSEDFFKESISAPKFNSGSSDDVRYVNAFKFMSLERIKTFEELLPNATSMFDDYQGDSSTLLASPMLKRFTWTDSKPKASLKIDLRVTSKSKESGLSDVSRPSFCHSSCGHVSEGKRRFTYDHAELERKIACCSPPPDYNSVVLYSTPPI
Sequence of Serine/threonine-protein kinase Chk2 (O96017 whole entry): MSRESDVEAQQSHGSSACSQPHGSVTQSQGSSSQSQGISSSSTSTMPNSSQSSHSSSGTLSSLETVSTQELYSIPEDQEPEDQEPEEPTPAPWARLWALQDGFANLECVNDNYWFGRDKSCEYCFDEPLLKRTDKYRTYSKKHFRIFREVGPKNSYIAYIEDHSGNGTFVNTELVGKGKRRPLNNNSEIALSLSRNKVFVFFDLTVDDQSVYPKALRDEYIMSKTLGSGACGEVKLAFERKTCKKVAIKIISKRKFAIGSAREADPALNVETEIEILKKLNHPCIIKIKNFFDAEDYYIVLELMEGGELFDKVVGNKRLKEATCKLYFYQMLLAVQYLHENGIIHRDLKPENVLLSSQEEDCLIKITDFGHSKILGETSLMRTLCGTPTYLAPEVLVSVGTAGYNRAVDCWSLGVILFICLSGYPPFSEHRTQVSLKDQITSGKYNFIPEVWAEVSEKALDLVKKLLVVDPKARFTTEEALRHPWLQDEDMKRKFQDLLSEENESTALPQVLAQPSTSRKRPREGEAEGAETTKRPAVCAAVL

Row | SMILES | IC50 (PANC-1) [µM] | IC50 (MIA PaCa-2) [µM] | IC50 (HT-29) [µM] | IC50 (NCI-H460 [1]) [µM] | IC50 (A-375) [µM] | viability at 96 h [2] [%] | IC50 [3] [µM] | IC50 [4] [µM] | IC50 [5] [µM] | Activity (NCI-H460 [6]) [%] | Activity (NCI-H460 [7]) [%] | Activity (NCI-H460 [8]) [%] | Activity (NCI-H460 [9]) [%] | Activity (NCI-H460 [10]) [%] | Activity (NCI-H460 [11]) [%] | Activity (NCI-H460 [12]) [%]
1 | Cc1ccc2nc3sc(C(=O)Nc4ccc(C(=O)/C=C/c5ccc(Cl)cc5)cc4)cc3cc2c1 | 9.6 | 9.4 | 11.6 | 9.2 | 39.6 | > 91 |  |  |  |  |  |  |  |  |  | 
2 | COc1cccc(/C=C/C(=O)c2ccc(NC(=O)c3cc4cc5cc(C)ccc5nc4s3)cc2)c1 | 3.5 | 3.7 | 4.2 | 3.6 | 17.6 | > 91 | 2.9 |  |  |  |  |  |  |  |  | 
3 | COc1ccc2nc3sc(C(=O)Nc4ccc(C(=O)/C=C/c5cc(OC)c(OC)c(OC)c5)cc4)cc3cc2c1 | 1.4 | 1 | 1.4 | 1.9 | 3.8 | > 91 | 1.4 |  |  |  |  |  |  |  |  | 
4 | COc1ccc(/C=C/C(=O)c2ccc(NC(=O)c3cc4cc5ccccc5nc4s3)cc2)cc1OC |  | 0.5 | 1.1 | 1.2 | 2.4 | > 91 | 1.6 |  |  |  |  |  |  |  |  | 
5 | O=C(/C=C/c1ccccc1)c1ccc(NC(=O)c2cc3cc4ccccc4nc3s2)cc1 |  | 12.5 | 14.9 |  | > 50 | > 91 |  |  |  |  |  |  |  |  |  | 
6 | COc1cc(/C=C/C(=O)c2ccc(NC(=O)c3cc4cc5cc(C)ccc5nc4s3)cc2)cc(OC)c1OC | 2.2 | 2 | 3.7 | 3.2 | 6.4 | > 91 | 3.2 |  |  |  |  |  |  |  |  | 
7 | COc1cccc(/C=C/C(=O)c2ccc(NC(=O)c3cc4cc5cc(OC)ccc5nc4s3)cc2)c1 | 4.5 | 4.9 | 6.7 | 5.5 | > 50 | > 91 | 2.8 |  |  |  |  |  |  |  |  | 
8 | CCCCNc1ncnc2c1sc1nc3ccccc3cc12 |  |  |  |  |  |  |  | 0.54 | 1.7 |  |  |  |  |  |  | 
9 | COc1ccc2nc3sc(C(=O)Nc4ccc(C(=O)/C=C/c5ccc(OC)c(OC)c5)cc4)cc3cc2c1 | 1 | 0.8 | 0.5 | 0.2 | 1.6 | > 91 | 0.7 |  |  |  |  |  |  |  |  | 
10 | Cc1ccc2nc3sc(C(=O)Nc4ccc(C(=O)/C=C/c5ccccc5)cc4)cc3cc2c1 | 9.5 | 9.2 | 10.4 | 9.7 | 25.9 | > 91 |  |  |  |  |  |  |  |  |  | 
11 | COc1cc(/C=C/C(=O)c2ccc(NC(=O)c3cc4cc5ccccc5nc4s3)cc2)cc(OC)c1OC | 1.4 | 1.7 | 2.5 | 2.7 | 4.2 | > 91 | 1.2 |  |  |  |  |  |  |  |  | 
12 | COc1ccc2nc3sc(C(=O)Nc4ccc(C(=O)/C=C/c5ccccc5)cc4)cc3cc2c1 | 5.5 | 5.9 | 7.8 | 6.5 | 16.7 | > 91 |  |  |  |  |  |  |  |  |  | 
13 | COc1ccc2nc3sc(C(=O)Nc4ccc(C(=O)/C=C/c5ccc(Cl)cc5)cc4)cc3cc2c1 | 13.8 | 14.4 | 17.2 | 12.2 | 44.6 | > 91 |  |  |  |  |  |  |  |  |  | 
14 | COc1ccc(/C=C/C(=O)c2ccc(NC(=O)c3cc4cc5cc(C)ccc5nc4s3)cc2)cc1OC | 1.2 | 0.9 | 1 | 0.9 | 2 | > 91 | 0.5 |  |  | 15.72 | 44.24 | 38.31 | 17.45 | 7.22 | 9.08 | 2.31
15 | COc1cccc(/C=C/C(=O)c2ccc(NC(=O)c3cc4cc5ccccc5nc4s3)cc2)c1 | 6.7 | 6.2 | 9.4 | 9.7 | 28.4 | > 91 |  |  |  |  |  |  |  |  |  | 
16 | O=C(/C=C/c1ccc(Cl)cc1)c1ccc(NC(=O)c2cc3cc4ccccc4nc3s2)cc1 | 5.9 | 6.2 | 7.9 | 6.7 | 19.4 | > 91 |  |  |  |  |  |  |  |  |  | 
